Laboratory results published in US6414014B1 (Bristol-Myers Squibb Company, priority 1992, dated 2002).

Experiments:
[1] = system: patients suffering from ovarian carcinoma; assay: Multi-center, randomized comparative study of taxol in platinum pretreated ovarian carcinoma: objective response; type: in vivo
Source text: The high degree of success, greater than 10% of objective response, to treatment by patients suffering from drug refractory ovarian carcinoma is truly astonishing, since responses to drug refractory ovarian carcinoma are extremely uncommon. While experimental data is provided herein for the successful treatment of ovarian carcinoma with taxol using the present treatment protocol, it is to be understood that the treatment protocol can be used for the treatment of other forms of cancer with taxol, such as melanoma, renal cell carcinoma, and other cancers which are treatable with taxol.
(§1) Responses were evaluated every two cycles.
Patients with ovarian carcinoma included in the study had been treated with and were unresponsive to a minimum of one but no more than two platinum-containing chemotherapy regimens, and were required to have shown progression during or relapse after their last regimen of chemotherapy. Patients were treated every 21 days if allowed by toxicity.
While an emulsion of taxol in polyethoxylated caster oil in dehydrated alcohol is utilized as a vehicle in a preferred embodiment, it is contemplated that other pharmaceutically acceptable vehicles for taxol may be used.
This procedure enables the accurate accessment of the patient receiving the taxol.
Patients ranged between 18 and 75 years in age with an Eastern Cooperative Oncology Group, ECOG, performance status of 0, 1, or 2, and had to have recovered from all toxicities of previous treatment. Further, no prior chemotherapy or radiotherapy were allowed within four weeks prior to entry into the study (patients were also not entered into the study if there had been less than six weeks since prior mitomycin, nitrosureas, or high-dose carboplatin therapy). An adequate baseline bone marrow function was required, which was defined as a granulocyte count ≧2,000 cells/cmm and a platelet count ≧100,000 cells/cmm. Adequate hepatic and renal functions were required with normal hepatic function defined as total billirubin ≦1.5 times upper normal value and normal renal function defined as serum creatinine ≦1.5 times upper normal value. Patients with abdominal adenocarcinoma, a previous history of a trial or ventricular arrhythmias, congestive heart failure, myocardial infarction within six months preceding randomization, complete bowel obtruction, a pre-existing neuropathy <WHO grade 2, active infection, prior allergic reaction to drugs containing Cremaphor, or other serious medical condition were excluded from this study.
(§2) Eligible patients were randomized according to a computerized randomization log. During therapy, hematology data (hemoglobin, white blood cell count, granulocytes and platelets) were collected, and toxicity assessments were continuously made. After each cycle, a physical history update was recorded, as well as tumor measurement, performance status (ECOG), hematology, chemistry (serum creatinine, billirubin, alkaline phosphatase, (SLOT (AST), CA125) and a toxicity assessment. A quality of life assessment was also made after each cycle, and every two months until six months after treatment stopped.

[2] = Hematologic toxicity (myelotoxicity) in the randomized taxol study, weekly blood counts; type: in vivo, patients
Protocol: as §1, §2
White blood cell (WBC) counts, absolute neutrophil count (ANC), platelet counts, and hemoglobin (Hb) concentration were the primary variables used to evaluate treatment related myelosuppression. The World Health Orgination, WHO, grades of nadir for the entire study population of 157 patients during course 1 are presented in the table below. Leukopenia and neutropenia were the most frequent and severe hemotologic adverse effects observed during the first couse of treatment. 53% (83/156) of the patients had Grade III or IV neutropenia, while 39% (61/157) had Grade III or IV leukopenia.

[3] = in vivo
Protocol: Patients with platinum pretreated recurrent ovarian cancer were randomized to a 135 or 175 mg/m^2 dose arm, administered as a 3-hour or 24-hour IV infusion, which was repeated every three weeks. Responses were evaluated every two cycles. All four treatment groups were matched for age, performance status, previous treatments, and time from last platinum therapy.
All rechallenge patients received a prolonged 24-hour infusion, even if the hypersensitivity reaction occurred during a 3-hour infusion. Dosage reductions in subsequent treatment courses were mandated for all patients having (1) a granulocyte count of less than 500 cells/cmm, (2) a platelet count of less than 50,000 cells/cmm for seven days or more, (3) febrile neutropenia, (4) infection, (5) hemmorage, (6) mucositis with vesiculation and/or ulcers, or (7) vomiting appearing despite anti-emitic premedication.

[4] = TOTAL, all four arms, n = 157, course 1
[5] = arm 135/3 (mg/m^2/infusion hours), n = 39, course 1
[6] = arm 135/24 (mg/m^2/infusion hours), n = 44, course 1
[7] = arm 175/3 (mg/m^2/infusion hours), n = 29, course 1
[8] = arm 175/4 (mg/m^2/infusion hours), n = 45, course 1

CC(=O)O[C@H]1C(=O)[C@@]2(C)[C@H]([C@H](OC(=O)c3ccccc3)[C@]3(O)C[C@H](OC(=O)[C@H](O)[C@@H](NC(=O)c4ccccc4)c4ccccc4)C(C)=C1C3(C)C)[C@]1(OC(C)=O)CO[C@@H]1C[C@@H]2O [taxol]
stabilization of disease, patients with an early relapse after platinum [1]: 53%
response to taxol in patients who had progressed on previous platinum containing chemotherapy ([1]; 3 out of 46): 7%
response to taxol in patients considered resistant to platinum therapy ([1]; 14/114, progression on therapy or relapse within six months): 13%
objective response rate, not evaluated and unevaluable patients excluded ([1]; 22/135 patients): 16%
stabilization of disease, patients with disease truly refractory to platinum ([1]; 24/46): 52%
response to taxol, platinum resistant patients with one previous regimen of platinum ([1]; in vivo): 15%
response to taxol, platinum resistant patients with two previous regimens of platinum ([1]; in vivo): 10%
patients with stable disease continued on taxol ([1]; of 157 patients): 51 patients
patients with grade 4 neutropenia ([2]; 3-hour infusion, 8/68, course 1): 12%
patients with grade 4 neutropenia ([2]; 24-hour taxol infusion, 51/88, course 1): 58%
AMC Count, WHO grade 0 nadir, patients [2, 4]: 37 (24) n (%)
AMC Count, WHO grade I nadir, patients [2, 4]: 13 (8) n (%)
AMC Count, WHO grade II nadir, patients [2, 4]: 23 (15) n (%)
AMC Count, WHO grade III nadir, patients [2, 4]: 24 (15) n (%)
AMC Count, WHO grade IV nadir, patients [2, 4]: 59 (38) n (%)
Platelet Count, WHO grade 0 nadir, patients [2, 4]: 147 (94) n (%)
Platelet Count, WHO grade I nadir, patients [2, 4]: 6 (4) n (%)
Platelet Count, WHO grade II nadir, patients [2, 4]: 2 (1) n (%)
Platelet Count, WHO grade III nadir, patients [2, 4]: 1 (1) n (%)
Platelet Count, WHO grade IV nadir, patients [2, 4]: 1 (1) n (%)
WBC Count, WHO grade 0 nadir, patients [2, 4]: 31 (20) n (%)
WBC Count, WHO grade I nadir, patients [2, 4]: 29 (18) n (%)
WBC Count, WHO grade II nadir, patients [2, 4]: 36 (23) n (%)
WBC Count, WHO grade III nadir, patients [2, 4]: 50 (32) n (%)
WBC Count, WHO grade IV nadir, patients [2, 4]: 11 (7) n (%)
patients with severe neutropenia (WHO Grade III and IV) during at least one course ([2]; all arms): 63%
AMC Count, WHO grade 0 nadir, patients [2, 5]: 18 (46) n (%)
AMC Count, WHO grade I nadir, patients [2, 5]: 8 (21) n (%)
AMC Count, WHO grade II nadir, patients [2, 5]: 8 (21) n (%)
AMC Count, WHO grade III nadir, patients [2, 5]: 4 (10) n (%)
AMC Count, WHO grade IV nadir, patients [2, 5]: 1 (3) n (%)
Platelet Count, WHO grade 0 nadir, patients [2, 5]: 36 (92) n (%)
Platelet Count, WHO grade I nadir, patients [2, 5]: 2 (5) n (%)
Platelet Count, WHO grade II nadir, patients [2, 5]: 1 (3) n (%)
Platelet Count, WHO grade III nadir, patients [2, 5]: 0 n (%)
Platelet Count, WHO grade IV nadir, patients [2, 5]: 0 n (%)
WBC Count, WHO grade 0 nadir, patients [2, 5]: 15 (38) n (%)
WBC Count, WHO grade I nadir, patients [2, 5]: 13 (33) n (%)
WBC Count, WHO grade II nadir, patients [2, 5]: 7 (18) n (%)
WBC Count, WHO grade III nadir, patients [2, 5]: 3 (8) n (%)
WBC Count, WHO grade IV nadir, patients [2, 5]: 1(3) n (%)
AMC Count, WHO grade 0 nadir, patients [2, 6]: 6 (14) n (%)
AMC Count, WHO grade I nadir, patients [2, 6]: 2 (15) n (%)
AMC Count, WHO grade II nadir, patients [2, 6]: 7 (16) n (%)
AMC Count, WHO grade III nadir, patients [2, 6]: 6 (14) n (%)
AMC Count, WHO grade IV nadir, patients [2, 6]: 23 (52) n (%)
Platelet Count, WHO grade 0 nadir, patients [2, 6]: 43 (98) n (%)
Platelet Count, WHO grade I nadir, patients [2, 6]: 1 (2) n (%)
Platelet Count, WHO grade II nadir, patients [2, 6]: 0 n (%)
Platelet Count, WHO grade III nadir, patients [2, 6]: 0 n (%)
Platelet Count, WHO grade IV nadir, patients [2, 6]: 0 n (%)
WBC Count, WHO grade 0 nadir, patients [2, 6]: 4 (9) n (%)
WBC Count, WHO grade I nadir, patients [2, 6]: 5 (11) n (%)
WBC Count, WHO grade II nadir, patients [2, 6]: 11 (25) n (%)
WBC Count, WHO grade III nadir, patients [2, 6]: 20 (46) n (%)
WBC Count, WHO grade IV nadir, patients [2, 6]: 4 (9) n (%)
AMC Count, WHO grade 0 nadir, patients [2, 7]: 11 (38) n (%)
AMC Count, WHO grade I nadir, patients [2, 7]: 2 (7) n (%)
AMC Count, WHO grade II nadir, patients [2, 7]: 3 (10) n (%)
AMC Count, WHO grade III nadir, patients [2, 7]: 6 (21) n (%)
AMC Count, WHO grade IV nadir, patients [2, 7]: 7 (24) n (%)
Platelet Count, WHO grade 0 nadir, patients [2, 7]: 29 (100) n (%)
Platelet Count, WHO grade I nadir, patients [2, 7]: 0 n (%)
Platelet Count, WHO grade II nadir, patients [2, 7]: 0 n (%)
Platelet Count, WHO grade III nadir, patients [2, 7]: 0 n (%)
Platelet Count, WHO grade IV nadir, patients [2, 7]: 0 n (%)
WBC Count, WHO grade 0 nadir, patients [2, 7]: 11 (38) n (%)
WBC Count, WHO grade I nadir, patients [2, 7]: 6 (21) n (%)
WBC Count, WHO grade II nadir, patients [2, 7]: 7 (24) n (%)
WBC Count, WHO grade III nadir, patients [2, 7]: 5 (17) n (%)
WBC Count, WHO grade IV nadir, patients [2, 7]: 0 — n (%)
AMC Count, WHO grade 0 nadir, patients [2, 8]: 2 (5) n (%)
AMC Count, WHO grade I nadir, patients [2, 8]: 1 (2) n (%)
AMC Count, WHO grade II nadir, patients [2, 8]: 5 (11) n (%)
AMC Count, WHO grade III nadir, patients [2, 8]: 8 (18) n (%)
AMC Count, WHO grade IV nadir, patients [2, 8]: 28 (63) n (%)
Platelet Count, WHO grade 0 nadir, patients [2, 8]: 39 (87) n (%)
Platelet Count, WHO grade I nadir, patients [2, 8]: 3 (7) n (%)
Platelet Count, WHO grade II nadir, patients [2, 8]: 1 (2) n (%)
Platelet Count, WHO grade III nadir, patients [2, 8]: 1 (2) n (%)
Platelet Count, WHO grade IV nadir, patients [2, 8]: 1 (2) n (%)
WBC Count, WHO grade 0 nadir, patients [2, 8]: 1 (2) n (%)
WBC Count, WHO grade I nadir, patients [2, 8]: 5 (11) n (%)
WBC Count, WHO grade II nadir, patients [2, 8]: 11 (25) n (%)
WBC Count, WHO grade III nadir, patients [2, 8]: 22 (49) n (%)
WBC Count, WHO grade IV nadir, patients [2, 8]: 6 (13) n (%)
severe leukopenia (grade 3 and grade 4 pooled), 24-hour versus 3-hour infusion ([2]; course 1): more frequently
patients with Grade III or IV leukopenia ([2]; course 1, 61/157, all arms): 39%
patients with Grade III or IV neutropenia ([2]; course 1, 83/156, all arms): 53%
patients with severe thrombocytopenia ([2]; course 1, two patients, all arms): 1%
incidence of severe neutropenia ([2]; high dose arms, 55/74): 74%
incidence of severe neutropenia ([2]; long-term infusion arms): 85%
anemia of any grade in patients with normal baseline Hb values ([2]; long-term infusion, 26/55): 47%
incidence of severe neutropenia ([2]; low dose arms, 43/83): 52%
anemia of any grade in patients with normal baseline Hb values ([2]; short-term infusion): 28%
incidence of severe neutropenia ([2]; short-term infusion arms): 32%
patients who required a dose reduction ([3]; female, human, 9 weeks): 17%
dose reduction required, long term infusion arms versus short term infusion arms [3]: more frequently
